Test results reported in patent publication US5589568A (priority 1994, dated 1996).
pEC50: −log10 of the molar value. Read-outs that look alike come from different tables or passages of the source. Where a SMILES comes first, the peptide text is derived from it. Where no end group is shown, it is not given here. The star is where a group is joined. Dodecyl = CCCCCCCCCCCC*

Tests used:
[1] = target: T1, Go (Bos taurus, UniProt P08239); assay: steady state GTPase activity of Go in phospholipid vesicles; assay type: biochemical, bovine
T1 construct: proteins were extracted from bovine cerebral cortical membranes; from tissue; host or cells: bovine brain (cerebral cortical membranes)
T1 sequence (P08239 2-354 limits assumed): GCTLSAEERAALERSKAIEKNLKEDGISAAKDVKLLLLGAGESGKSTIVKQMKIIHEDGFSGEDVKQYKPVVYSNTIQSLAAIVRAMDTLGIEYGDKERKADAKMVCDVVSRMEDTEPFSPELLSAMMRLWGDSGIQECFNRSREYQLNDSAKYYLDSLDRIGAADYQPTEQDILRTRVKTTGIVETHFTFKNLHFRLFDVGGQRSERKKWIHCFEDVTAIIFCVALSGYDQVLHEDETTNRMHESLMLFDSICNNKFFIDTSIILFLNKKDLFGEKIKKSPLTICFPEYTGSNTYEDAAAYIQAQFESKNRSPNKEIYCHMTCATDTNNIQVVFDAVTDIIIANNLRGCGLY
T1 sequence (P62871 2-340 partner limits assumed): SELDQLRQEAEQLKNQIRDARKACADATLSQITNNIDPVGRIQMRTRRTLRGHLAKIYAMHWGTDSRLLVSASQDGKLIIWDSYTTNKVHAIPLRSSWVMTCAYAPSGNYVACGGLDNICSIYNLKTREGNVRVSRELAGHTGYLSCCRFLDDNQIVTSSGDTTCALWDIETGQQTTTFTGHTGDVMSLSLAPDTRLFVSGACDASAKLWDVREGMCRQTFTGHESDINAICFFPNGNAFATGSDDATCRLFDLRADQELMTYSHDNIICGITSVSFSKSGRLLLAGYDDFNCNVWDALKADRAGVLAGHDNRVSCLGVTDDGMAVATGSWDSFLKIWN
T1 sequence (P63212 2-68 partner limits assumed): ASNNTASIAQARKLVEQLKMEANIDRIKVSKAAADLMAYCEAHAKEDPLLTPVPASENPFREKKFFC
Excerpt: G proteins were reconstituted into phospholipid vesicles composed of dioleoyl-PC/bovine brain PS/1-palmitoyl,2-oleoyl-PE (3:4:3) as reported previously by Higashijima et al., 1988, incorporated herein by reference.

[2] = target: Gs (Homo sapiens, UniProt P63092); assay: steady state GTPase activity of Gs; assay type: biochemical; conditions: read-out: Gs af. (apparent affinity, estimated by EC50 of GTPase activity)
Sequence of Gs (P63092 whole entry): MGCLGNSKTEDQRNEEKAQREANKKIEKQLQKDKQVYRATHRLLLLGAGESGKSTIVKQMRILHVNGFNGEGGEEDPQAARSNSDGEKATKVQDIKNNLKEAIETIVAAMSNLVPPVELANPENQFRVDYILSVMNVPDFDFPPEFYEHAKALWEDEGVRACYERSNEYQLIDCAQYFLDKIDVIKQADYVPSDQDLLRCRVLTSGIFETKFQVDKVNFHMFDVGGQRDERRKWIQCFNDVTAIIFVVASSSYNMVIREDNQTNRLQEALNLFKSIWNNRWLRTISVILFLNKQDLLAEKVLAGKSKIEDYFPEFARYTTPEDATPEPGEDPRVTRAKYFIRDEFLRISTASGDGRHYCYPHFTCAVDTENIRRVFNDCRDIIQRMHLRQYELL
Procedure: Methods for the assay of steady state GTP hydrolysis and GTPγS binding have been described previously by Higashijima, 1987, and Ferguson, 1986, and incorporated herein by reference. Unless noted otherwise, assays of steady state GTP hydrolysis and of the binding and dissociation of guanine nucleotides were carried out in the buffer described previously, but without detergent and with 1.1 mM MgSO4 and the nucleotide specified in the text. When necessary, the concentration of free Mg^2+ was adjusted using EDTA buffers as described previously by Higashijima, 1987, and incorporated herein by reference.
The data set forth in the following tables represent data generated by the inventors employing the steady state GTP hydrolysis, expressed as molar turnover numbers, are described herein under the "Assay" section of the Experimental Procedures in Example 1. The data has been classified according to the criteria outlined below and the effects of each peptide and modified variant on Go, Gi, and Gs have been tabulated. Table III below sets forth data generated for various mastoparan analogues designed by the inventors, in comparison with the various naturally-occurring mastoparans (e.g., MP, MP-A and MP-T). Table IV sets forth similar data generated for various receptor-based peptides designed by the inventors based on a consideration of various G-protein linked receptors.
Apparent affinity (af.) and apparent efficacy (ef.) were estimated by EC50 and maximum turnover number of GTPase activity.

[3] = Table VI, receptor-based peptides

Row | Compound | pEC50 [1] | pEC50 ([2]; Table IV) | pEC50 [2, 3]
1 | CC[C@H](C)[C@H](N)C(=O)N[C@@H](CC(N)=O)C(=O)N[C@@H](CC(C)C)C(=O)N[C@@H](CCCCN)C(=O)N[C@@H](C)C(=O)N[C@@H](CC(C)C)C(=O)N[C@@H](C)C(=O)N[C@@H](C)C(=O)N[C@@H](CC(C)C)C(=O)N[C@@H](C)C(=O)N[C@@H](CCCCN)C(=O)N[C@@H](CCCCN)C(=O)N[C@@H](C)C(=O)N[C@@H](CC(C)C)C(N)=O [MAS05, INLKALAALAKKAL] | 4.52 to 5.00 | 4.52 to 5.00 | –
2 | REHKALKTLGIIC-NH2 [ER40] | < 4.00 | – | 4.00 to 4.52
3 | CVYVVAKRESRGLKIL-NH2 [ER47] | 4.00 to 4.52 | – | < 4.00
4 | CVYREAKEQIRKIDRVL-NH2 [ER18] | 4.00 to 4.52 | – | < 4.00
5 | CIYRETENRARELAALQGSET-NH2 [ER32] | < 4.00 | – | < 4.00
6 | INYKALAACAKKIL-NH2 [ER14] | 5.00 to 5.52 | 5.00 to 5.52 | –
7 | INLKALAAKAKKLL-NH2 [MAS13] | 4.00 to 4.52 | 5.00 to 5.52 | –
8 | IQLKALAALAKALL-NH2 [ER12] | 5.00 to 5.52 | 5.00 to 5.52 | –
9 | CISRASKSRIKKDKKEPVAIL-NH2 [ER44] | > 5.52 | – | 4.00 to 4.52
10 | IVYREAKEQIRKIL-NH2 [ER23] | 4.00 to 4.52 | – | 4.00 to 4.52
11 | INLAALAALAKKLL-NH2 [Mas19] | 5.00 to 5.52 | 5.00 to 5.52 | –
12 | CPLSYRAKRTPRRAALM-NH2 [ER38] | 5.00 to 5.52 | – | 4.00 to 4.52
13 | INLRALAALAKKLL-NH2 [MAS20] | 5.00 to 5.52 | 5.00 to 5.52 | –
14 | INLQALKALAKALL-NH2 [ER11] | 5.00 to 5.52 | 5.00 to 5.52 | –
15 | INLKALAAAAKKLL-NH2 [MAS12] | 4.52 to 5.00 | 5.00 to 5.52 | –
16 | INLKALKALAKALL-NH2 [ER10] | > 5.52 | 5.00 to 5.52 | –
17 | INLRALAALAKALL-NH2 [ER6] | > 5.52 | 5.00 to 5.52 | –
18 | INLKALAALAAALL-NH2 [ER5] | 5.00 to 5.52 | 5.00 to 5.52 | –
19 | IKWKAILDAVKKVL-NH2 [MP-A, reference compound] | 5.00 to 5.52 | 5.00 to 5.52 | –
20 | CVYREAKEQIRKIDR-NH2 [ER43] | < 4.00 | – | < 4.00
21 | INYKALAALAKALC-NH2 [ER17] | 5.00 to 5.52 | 4.52 to 5.00 | –

Row | Compound | pEC50 [1] | pEC50 ([2]; Table IV) | pEC50 [2, 3]
22 | INLKALAALAKRLL-NH2 [MAS08] | 5.00 to 5.52 | 5.00 to 5.52 | –
23 | INLKAFAALAKKLL-NH2 [MAS23] | 4.52 to 5.00 | 5.00 to 5.52 | –
24 | INFKALAALAKKLL-NH2 [MAS22] | 4.52 to 5.00 | 5.00 to 5.52 | –
25 | INWRAWRAWARAWL-NH2 [ER27] | > 5.52 | 5.00 to 5.52 | –
26 | INLKALAALAKALL-NH2 [ER1] | 5.00 to 5.52 | 5.00 to 5.52 | –
27 | INLKALAALARKLL-NH2 [MAS10] | 5.00 to 5.52 | 5.00 to 5.52 | –
28 | CCCCCCCCCCCCSC[C@H](NC(=O)[C@@H](NC(=O)[C@@H](NC(=O)CNC(=O)[C@H](CC(C)C)NC(=O)[C@@H](NC(=O)[C@H](CCCCN)NC(=O)[C@H](CC(C)C)NC(=O)[C@H](C)NC(=O)[C@H](CCCCN)NC(=O)[C@H](Cc1c[nH]cn1)NC(=O)[C@H](CCC(=O)O)NC(=O)[C@@H](N)CCCNC(=N)N)[C@@H](C)O)[C@@H](C)CC)[C@@H](C)CC)C(N)=O [C12-ER40] (H-REHKALKTLGIIC(Dodecyl)-NH2) | 5.00 to 5.52 | – | 5.00 to 5.52
29 | INLRALAALARALL-NH2 [ER7] | > 5.52 | 5.00 to 5.52 | –
30 | CVFQVAKRQLQKIDKVL-NH2 [ER36] | 4.52 to 5.00 | – | 4.00 to 4.52
31 | CVYVVAKRESRGLKSGLKTDIL-NH2 [ER46] | 4.00 to 4.52 | – | < 4.00
32 | CC[C@H](C)[C@H](N)C(=O)N[C@@H](CC(N)=O)C(=O)N[C@@H](CC(C)C)C(=O)N[C@@H](CCCCN)C(=O)N[C@@H](C)C(=O)N[C@@H](CC(C)C)C(=O)N[C@@H](C)C(=O)N[C@@H](C)C(=O)N[C@@H](CC(C)C)C(=O)N[C@@H](C)C(=O)N[C@@H](CCCCN)C(=O)N[C@@H](CCCCN)C(=O)N[C@@H](CC(C)C)C(=O)N[C@@H](CC(C)C)C(N)=O [MAS03] | 5.00 to 5.52 | 4.52 to 5.00 | –
33 | INLQALAALAQALL-NH2 [ER9] | 4.00 to 4.52 | 4.52 to 5.00 | –
34 | INLRALRALARALL-NH2 [ER24] | > 5.52 | 5.00 to 5.52 | –
35 | INLAALAALAKALL-NH2 [ER4] | 5.00 to 5.52 | 5.00 to 5.52 | –
36 | INLKALAALAKNLL-NH2 [ER20] | 5.00 to 5.52 | 4.52 to 5.00 | –
37 | INYKALCALAKKIL-NH2 [ER15] | 4.00 to 4.52 | 4.52 to 5.00 | –
38 | INLKALAALAAKLL-NH2 [Mas9] | 5.00 to 5.52 | 4.00 to 4.52 | –
39 | ILLKALAALAKALL-NH2 [ER21] | 5.00 to 5.52 | 5.00 to 5.52 | –
40 | CIYRETENRARELAALQGSETIL-NH2 [ER33] | < 4.00 | – | < 4.00
41 | INLKALKALAKKLL-NH2 [MAS15] | 4.52 to 5.00 | 5.00 to 5.52 | –
42 | CVYREAKEQIRKIL-NH2 [ER19] | < 4.00 | – | < 4.00

Row | Compound | pEC50 [1] | pEC50 ([2]; Table IV) | pEC50 [2, 3]
43 | INLKALAALAQALL-NH2 [ER3] | 4.52 to 5.00 | 5.00 to 5.52 | –
44 | INLKAKAALAKKLL-NH2 [Mas17] | 4.00 to 4.52 | 5.00 to 5.52 | –
45 | CVYIVAKRTTKNLEAGVMKEIL-NH2 [ER34] | 4.00 to 4.52 | – | 4.00 to 4.52
46 | INLKKLAALAKKLL-NH2 [MAS18] | 4.52 to 5.00 | 5.00 to 5.52 | –
47 | INLKAAAALAKKLL-NH2 [MAS16] | 4.52 to 5.00 | 5.00 to 5.52 | –
48 | CC[C@H](C)[C@H](N)C(=O)N[C@@H](CC(N)=O)C(=O)N[C@@H](CC(C)C)C(=O)N[C@@H](CCCCN)C(=O)N[C@@H](C)C(=O)N[C@@H](CC(C)C)C(=O)N[C@@H](C)C(=O)N[C@@H](C)C(=O)N[C@@H](CC(C)C)C(=O)N[C@@H](C)C(=O)N[C@@H](CCCCN)C(=O)N[C@@H](CCCCN)C(=O)N[C@@H](CCCCN)C(=O)N[C@@H](CC(C)C)C(N)=O [MAS06] | 4.00 to 4.52 | 4.00 to 4.52 | –
49 | CLLKALAALAKALL-NH2 [ER30] | 5.00 to 5.52 | 5.00 to 5.52 | –
50 | INAKALAALAKKLL-NH2 [MAS21] | 4.52 to 5.00 | 4.52 to 5.00 | –
51 | INLQALAALAKALL-NH2 [ER8] | 5.00 to 5.52 | 5.00 to 5.52 | –
52 | INLKALAKLAKKLL-NH2 [MAS14] | 4.52 to 5.00 | 5.00 to 5.52 | –
53 | INLKALAALAKKLA-NH2 [MAS04] | 5.00 to 5.52 | 5.00 to 5.52 | –
54 | INLKALAALKKKLL-NH2 [MAS11] | 4.52 to 5.00 | 5.00 to 5.52 | –
55 | INLKAIAAFAKKLL-NH2 [MP-T, reference compound] | 5.00 to 5.52 | 4.52 to 5.00 | –
56 | CISRASKSRIKKDKKIL-NH2 [ER45] | > 5.52 | – | 5.00 to 5.52
57 | INLKALAALARALL-NH2 [ER2] | > 5.52 | 5.00 to 5.52 | –
58 | CNYKALAALAKALL-NH2 [ER16] | 5.00 to 5.52 | 4.52 to 5.00 | –
59 | IVYREAKEQIRKIDRVL-NH2 [ER22] | 4.00 to 4.52 | – | 4.00 to 4.52
60 | INLRALAALRRRLL-NH2 [ER28] | > 5.52 | 5.00 to 5.52 | –
61 | CVYIVAKRTTKNLEIL-NH2 [ER35] | 4.52 to 5.00 | – | < 4.00
